Reference: patent publication US20040072222A1, “Peptide analogues of myelin basic protein epitopes in the treatment of experimental autoimmune encephalomyelitis (eae) and multiple sclerosis (ms)” (priority 2003, published 2004)
“Also recorded” adds a separate entry of the source. Like-named read-outs stand apart in the source and are kept apart here. Where no end group is shown, it is not given here.

Experiments:
[1] = test system: human peripheral blood T cells; experiment: Activation and proliferation of human peripheral blood T cells; type: cell-based; conditions: for reversal of agonist effect on human T cell activation and proliferation: co-culturing of the cells with antagonist peptide; for biological activity in human peripheral blood T cells relative to linear analogue: compared with linear MBP72-85 / Ala81MBP72-85; for effect on human T cell activation and proliferation: agonist peptides, linear vs cyclic
[2] = test system: demyelination and inflammation in the spinal cord; experiment: Histopathological examination of spinal cord sections (Luxol fast blue / Nuclear Fast Red); type: in vivo, Lewis rats; conditions: for spinal cord demyelination and inflammation on co-immunization with MBP72-85: day 15 after immunization
[3] = test system: EAE in Lewis rats; conditions: cited from earlier work
[4] = test system: EAE in Lewis rats; experiment: Induction-inhibition and assessment of EAE (clinical score); type: in vivo; conditions: for inhibition of MBP72-85-induced EAE (clinical signs) on co-injection: co-injected with MBP72-85, Lewis rats; for induction of EAE: injected subcutaneously in Lewis rats; for peak clinical score, day following the initial injection / recovery from EAE: injected subcutaneously in Lewis rats (section B2); for inhibition of MBP72-85-induced EAE on co-injection: analogue 500 μg co-injected with MBP72-85 25 μg, FIG. 2/3

**Q.** Which results are given for “Gln-Lys-Ser-Gln-Arg-Ser-Gln-Ala^81-GluAsn-Pro-Val [Ala^81MBP72-85]”?
**A.** reversal of agonist effect on human T cell activation and proliferation [1]: completely reversed; spinal cord demyelination and inflammation on co-immunization with MBP72-85 [2]: complete absence of inflammation and demyelination; prevention of clinical and histopathological manifestations of disease induced by c-MBP72-85 ([3]; Tselios et al 1999): prevented; prevention of the induction of EAE by parent peptide MBP72-85 ([3]; background, literature): prevented the induction of EAE; suppression of EAE induced by cyclic analogue on co-injection ([4]; co-injection with the inducing cyclic analogue): completely suppressed

**Q.** With “Gln^1-Lys^2-Ser^3-Gln^4-Arg^5-Ser^6-Gln^7-Ala^8-Glu^9-Asn^10-Pro^11-Val^12-NH2 [c-Ala^81MBP72-85]” as the substance, how does the “reversal of agonist effect on human T cell activation and proliferation” value [1] read?
**A.** completely reversed

**Q.** And the “biological activity in human peripheral blood T cells relative to linear analogue” value [1]?
**A.** comparable

**Q.** What about the “spinal cord demyelination and inflammation on co-immunization with MBP72-85” value [2] of the same substance?
**A.** completely prevented

**Q.** What about the “inhibition of MBP72-85-induced EAE (clinical signs) on co-injection” value [4] of the same substance?
**A.** completely prevented

**Q.** What does the source list for “Gln^1-Lys^2-Ser^3-Gln^4-Arg^5-Ser^6-Gln^7-Asp^8-Glu^9-Asn^10-Pro^11-Val^12-NH2 [c-MBP72-85]”?
**A.** effect on human T cell activation and proliferation [1]: comparable effect; biological activity in human peripheral blood T cells relative to linear analogue [1]: comparable; induction of EAE ([3]; background, literature): comparable potency to MBP72-85; induction of EAE [4]: induce EAE; peak clinical score, day following the initial injection [4]: 15 days; recovery from EAE [4]: eventual complete recovery in all animals; induction of EAE ([4]; listed as 1): comparable with that of linear agonist

**Q.** What does the source list for “QKSQRSQDENPV [MBP72-85, reference compound]”?
**A.** effect on human T cell activation and proliferation [1]: comparable effect; spinal cord histopathology after immunization with the peptide alone ([2]; day 15 / peak of disease): extensive perivascular and parenchymal inflammation; also recorded: multiple perivascular infiltrates; induction of EAE ([3]; background, literature): induce EAE; complete recovery in all animals ([4]; 25 μg peptide): ≤ 18 days; peak clinical score, day after the initial injection ([4]; 25 μg peptide): 13 days; induction of EAE [4]: induced an acute monophasic disease; also recorded: induce EAE; peak clinical score, day following the initial injection [4]: 15 days; recovery from EAE [4]: eventual complete recovery in all animals

**Q.** What does the source list for “Val-His-Phe-Phe-Arg^91-Asn-Ile-Val-Thr-Ala^96-Arg-Thr-Pro [[Arg^91,Ala^96]MBP87-99]”?
**A.** inhibition of MBP72-85-induced EAE on co-injection [4]: completely prevented; inhibition of MBP72-85-induced EAE (clinical signs) on co-injection [4]: completely prevented

**Q.** Which “inhibition of MBP72-85-induced EAE on co-injection” value [4] does the source give for “Val-His-Phe-Phe-Lys^91-Asn-Ile-Val-Thr-Ala^96-Arg-Thr-Pro^99 [cyclo-(91, 99) [Ala^96] MBP87-99]” here?
**A.** low inhibitory activity

**Q.** What does the source list for “Val^87-His-Phe-Phe-Arg^91-Asn-Ile-Val-Thr-Ala^96-Arg-Thr-Pro^99 [cyclo-(87, 99)[Arg^91,Ala^96]MBP87-99]”?
**A.** inhibition of MBP72-85-induced EAE on co-injection [4]: strong inhibitor; inhibition of MBP72-85-induced EAE (clinical signs) on co-injection [4]: completely prevented
